Results from ChEMBL document CHEMBL3045164, “Combination of flavopiridol and embelin effectively inhibit cell growth in hepatocellular carcinoma depending on regulatory relationship between CDK6 and XIAP” (Med Chem Res, 2012).
Calls of active or inactive are those of the source. No cut-off for these calls is given here.

Columns and labels:
Homo sapiens [1] = species on record: Homo sapiens; assay: Cytotoxicity against Homo sapiens (human) HepG2(2.2.1) cells assessed as growth inhibition at 15 uM after 24 to 72 hr by WST-8 assay; format: functional, cell-based
Homo sapiens [2] = species on record: Homo sapiens; assay: Cytotoxicity against Homo sapiens (human) HepG2(2.2.1) cells assessed as growth inhibition at 20 uM after 24 to 72 hr by WST-8 assay; format: functional, cell-based
Homo sapiens [3] = species on record: Homo sapiens; assay: Cytotoxicity against Homo sapiens (human) HepG2(2.2.1) cells assessed as growth inhibition at 10 uM after 24 to 72 hr by WST-8 assay; format: functional, cell-based
[4] = Cell cycle arrest in Homo sapiens (human) HepG2(2.2.1) cells assessed as accumulation at S phase at 100 nM after 24 hr by propidium iodide staining-based flow cytometric analysis (reference value: 22.55 +/- 2.98 %); format: functional
[5] = Cell cycle arrest in Homo sapiens (human) HepG2(2.2.1) cells assessed as accumulation at S phase at 300 nM after 24 hr by propidium iodide staining-based flow cytometric analysis (reference value: 22.55 +/- 2.98 %); format: functional
[6] = Downregulation of CDK4 expression in Homo sapiens (human) HepG2(2.2.1) cells at 500 nM after 24 hr by Western blot analysis; format: functional
[7] = Cell cycle arrest in Homo sapiens (human) HepG2(2.2.1) cells assessed as accumulation at G1 phase at 300 nM after 24 hr by propidium iodide staining-based flow cytometric analysis (reference value: 53.07 +/- 3.01 %); format: functional
[8] = Cell cycle arrest in Homo sapiens (human) HepG2(2.2.1) cells assessed as accumulation at G2 phase at 100 nM after 24 hr by propidium iodide staining-based flow cytometric analysis (reference value: 24.38 +/- 2.02 %); format: functional
Homo sapiens [9] = species on record: Homo sapiens; assay: Cytotoxicity against Homo sapiens (human) HepG2(2.2.1) cells assessed as growth inhibition at 100 nM after 24 to 72 hr by WST-8 assay; format: functional, cell-based
[10] = biological target: Cyclin-dependent kinase 4 (Homo sapiens) (UniProt P11802); assay: Inhibition of CDK4 in Homo sapiens (human) HepG2(2.2.1) cells assessed as downregulation of XIAP expression at 500 nM after 24 hr by Western blot analysis
Homo sapiens [11] = species on record: Homo sapiens; assay: Cytotoxicity against Homo sapiens (human) HepG2(2.2.1) cells assessed as growth inhibition at 75 nM after 24 to 72 hr by WST-8 assay; format: functional, cell-based
[12] = Downregulation of XIAP expression in Homo sapiens (human) HepG2(2.2.1) cells after 24 hr by Western blot analysis; format: functional
Homo sapiens [13] = species on record: Homo sapiens; assay: Cytotoxicity against Homo sapiens (human) HepG2(2.2.1) cells assessed as growth inhibition at 75 nM after 24 to 72 hr by WST-8 assay in presence of 15 uM XIAP inhibitor embelin; format: functional, cell-based
[14] = Cell cycle arrest in Homo sapiens (human) HepG2(2.2.1) cells assessed as accumulation at G1 phase at 500 nM after 24 hr by propidium iodide staining-based flow cytometric analysis (reference value: 53.07 +/- 3.01 %); format: functional
[15] = Cell cycle arrest in Homo sapiens (human) HepG2(2.2.1) cells assessed as accumulation at G2 phase at 500 nM after 24 hr by propidium iodide staining-based flow cytometric analysis (reference value: 24.38 +/- 2.02 %); format: functional
[16] = Cell cycle arrest in Homo sapiens (human) HepG2(2.2.1) cells assessed as accumulation at G1 phase at 100 nM after 24 hr by propidium iodide staining-based flow cytometric analysis (reference value: 53.07 +/- 3.01 %); format: functional
[17] = Downregulation of CDK2 expression in Homo sapiens (human) HepG2(2.2.1) cells at 500 nM after 24 hr by Western blot analysis; format: functional
[18] = Downregulation of CDK1 expression in Homo sapiens (human) HepG2(2.2.1) cells at 500 nM after 24 hr by Western blot analysis; format: functional
Homo sapiens [19] = species on record: Homo sapiens; assay: (§1) Cytotoxicity against Homo sapiens (human) HepG2(2.2.1) cells assessed as growth inhibition after 24 to 72 hr by WST-8 assay; format: functional, cell-based
[20] = as §1; format: functional, cell-based
[21] = biological target: G1/S-specific cyclin-D1 (Homo sapiens) (UniProt P24385); assay: Inhibition of cyclin D1 in Homo sapiens (human) HepG2(2.2.1) cells assessed as downregulation of XIAP expression at 500 nM after 24 hr by Western blot analysis
[22] = Downregulation of cyclin D1 expression in Homo sapiens (human) HepG2(2.2.1) cells at 500 nM after 24 hr by Western blot analysis; format: functional
[23] = Downregulation of CDK6 expression in Homo sapiens (human) HepG2(2.2.1) cells at 500 nM after 24 hr by Western blot analysis; format: functional
[24] = Cell cycle arrest in Homo sapiens (human) HepG2(2.2.1) cells assessed as accumulation at S phase at 500 nM after 24 hr by propidium iodide staining-based flow cytometric analysis (reference value: 22.55 +/- 2.98 %); format: functional
Homo sapiens [25] = species on record: Homo sapiens; assay: Cytotoxicity against Homo sapiens (human) HepG2(2.2.1) cells assessed as growth inhibition at 50 nM after 24 to 72 hr by WST-8 assay in presence of 10 uM XIAP inhibitor embelin; format: functional, cell-based
[26] = Downregulation of XIAP expression in Homo sapiens (human) HepG2(2.2.1) cells at 500 nM after 24 hr by Western blot analysis; format: functional
[27] = Induction of apoptosis in Homo sapiens (human) HepG2(2.2.1) cells at 500 nM after 24 hr by annexin V-FITC/propidium iodide staining-based flow cytometric analysis (reference value: 2.20%); format: functional
Homo sapiens [28] = species on record: Homo sapiens; assay: Cytotoxicity against Homo sapiens (human) HepG2(2.2.1) cells assessed as growth inhibition at 100 nM after 24 to 72 hr by WST-8 assay in presence of 75 uM XIAP inhibitor embelin; format: functional, cell-based
Homo sapiens [29] = species on record: Homo sapiens; assay: Cytotoxicity against Homo sapiens (human) HepG2(2.2.1) cells assessed as growth inhibition at 50 nM after 24 to 72 hr by WST-8 assay; format: functional, cell-based
[30] = Cell cycle arrest in Homo sapiens (human) HepG2(2.2.1) cells assessed as accumulation at G2 phase at 300 nM after 24 hr by propidium iodide staining-based flow cytometric analysis (reference value: 24.38 +/- 2.02 %); format: functional
[31] = biological target: Cyclin-dependent kinase 6 (Homo sapiens) (UniProt Q00534); assay: Inhibition of CDK6 in Homo sapiens (human) HepG2(2.2.1) cells assessed as downregulation of XIAP expression at 500 nM after 24 hr by Western blot analysis
Chain of Cyclin-dependent kinase 6 (Homo sapiens) (Q00534 whole entry): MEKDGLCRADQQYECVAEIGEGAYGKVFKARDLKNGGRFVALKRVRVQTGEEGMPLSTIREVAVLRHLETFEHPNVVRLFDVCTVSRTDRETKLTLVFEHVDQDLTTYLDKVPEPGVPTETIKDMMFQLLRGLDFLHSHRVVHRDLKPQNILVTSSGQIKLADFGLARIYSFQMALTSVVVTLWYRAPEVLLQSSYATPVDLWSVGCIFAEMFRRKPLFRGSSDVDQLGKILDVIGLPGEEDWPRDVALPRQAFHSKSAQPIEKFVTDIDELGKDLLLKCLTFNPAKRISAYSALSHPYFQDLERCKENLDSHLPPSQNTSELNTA

Chain of G1/S-specific cyclin-D1 (Homo sapiens) (P24385 whole entry): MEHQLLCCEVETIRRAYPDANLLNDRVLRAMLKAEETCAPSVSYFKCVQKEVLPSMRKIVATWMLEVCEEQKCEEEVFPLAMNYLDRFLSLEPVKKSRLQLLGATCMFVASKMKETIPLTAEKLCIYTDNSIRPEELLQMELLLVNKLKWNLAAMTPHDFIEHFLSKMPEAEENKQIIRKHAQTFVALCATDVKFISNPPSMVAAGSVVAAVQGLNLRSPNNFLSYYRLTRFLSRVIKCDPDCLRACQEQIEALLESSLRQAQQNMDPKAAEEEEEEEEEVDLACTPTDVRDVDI
Chain of Cyclin-dependent kinase 4 (Homo sapiens) (P11802 whole entry): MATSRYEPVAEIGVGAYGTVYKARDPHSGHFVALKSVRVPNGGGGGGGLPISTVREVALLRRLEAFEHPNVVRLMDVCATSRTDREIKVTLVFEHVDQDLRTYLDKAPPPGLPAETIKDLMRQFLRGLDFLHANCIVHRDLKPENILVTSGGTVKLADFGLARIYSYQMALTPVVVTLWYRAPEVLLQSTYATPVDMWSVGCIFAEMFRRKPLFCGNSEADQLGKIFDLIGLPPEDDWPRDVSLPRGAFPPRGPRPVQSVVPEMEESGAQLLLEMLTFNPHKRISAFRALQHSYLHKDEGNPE

SMILES: CCCCCCCCCCCC1=C(O)C(=O)C=C(O)C1=O
- growth inhibition (GI) (Homo sapiens [1]): Active
- growth inhibition (GI) (Homo sapiens [2]): Active
- growth inhibition (GI) (Homo sapiens [3]): Active

SMILES: CN1CC[C@H](c2c(O)cc(O)c3c(=O)cc(-c4ccccc4Cl)oc23)[C@H](O)C1 [ALVOCIDIB]
- Activity [4]: 22.2%
- Activity [5]: 27.9%
- Activity [6]: Active
- Activity [7]: 56.4%
- Activity [8]: 23.2%
- growth inhibition (GI) (Homo sapiens [9]): Active
- inhibition [10]: Active
- growth inhibition (GI) (Homo sapiens [11]): Active
- Activity [12]: Dose-dependent effect
- growth inhibition (GI) (Homo sapiens [13]): Active
- Activity [14]: 57.9%
- Activity [15]: 20.9%
- Activity [16]: 54.6%
- Activity [17]: inactive
- Activity [18]: inactive
- growth inhibition (GI) (Homo sapiens [19]): Dose-dependent effect
- IC50 [20]: 200 nM
- inhibition [21]: Active
- Activity [22]: Active
- Activity [23]: Active
- Activity [24]: 21.2%
- growth inhibition (GI) (Homo sapiens [25]): Active
- Activity [26]: Active
- Activity [27]: 14.28%
- growth inhibition (GI) (Homo sapiens [28]): Active
- growth inhibition (GI) (Homo sapiens [29]): Active
- Activity [30]: 15.7%
- inhibition [31]: Active
